According to US20090291942A1, “IMIDAZO PYRIDINE DERIVATIVES” (priority 2008, published 2009):
Structures can show the parent of a compound that is named as a salt.

Molecular target: T1, human GPR4 (Homo sapiens, UniProt P46093)
T1 construct: expressed in transfected cells
Assay: Cell-based assay for human GPR4 activity (pH-induced cAMP formation, HTRF)
Details: HeLa cells stably expressing human GPR4, pH-induced cAMP formation
Procedure, shortened: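 HeLa cells stably expressing human GPR4, pre-incubated 15 min at room temperature with compound in pH 8 buffer containing 2 mM IBMX. Buffer B added to set the final stimulation pH, then a further 15 min at room temperature; cAMP read by HTRF.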

T1 sequence (P46093 whole entry): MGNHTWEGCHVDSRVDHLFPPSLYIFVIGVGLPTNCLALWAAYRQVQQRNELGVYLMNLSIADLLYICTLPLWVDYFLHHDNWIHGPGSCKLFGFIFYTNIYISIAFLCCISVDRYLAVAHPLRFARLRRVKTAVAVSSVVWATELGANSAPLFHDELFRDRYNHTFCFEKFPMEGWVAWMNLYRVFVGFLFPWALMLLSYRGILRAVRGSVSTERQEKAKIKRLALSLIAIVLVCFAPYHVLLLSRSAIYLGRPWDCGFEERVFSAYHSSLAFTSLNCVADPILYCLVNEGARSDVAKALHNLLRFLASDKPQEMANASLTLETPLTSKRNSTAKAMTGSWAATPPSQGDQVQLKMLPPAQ

**Q.** For `CCCCCN1CCN(CCCc2ccc(Cn3c(CC)nc4c(C)cc(C)nc43)cc2)CC1` [Example 13, 2-Ethyl-5,7-dimethyl-3-{4-[3-(4-pentyl-piperazin-1-yl)-propyl]-benzyl}-3H-imidazo[4,5-b]pyridine], which IC50 is on record?
**A.** 0.662 µM

**Q.** Which IC50 does the source give for `CCCN1CCN(C/C=C/c2ccc(Cn3c(CC)nc4c(C)cc(C)nc43)cc2)CC1` [Example 45, 2-Ethyl-5,7-dimethyl-3-{4-[(E)-3-(4-propyl-piperazin-1-yl)-propenyl]-benzyl}-3H-imidazo[4,5-b]pyridine] here?
**A.** 0.046 µM

**Q.** For `CCc1nc2c(C)cc(C)nc2n1Cc1ccc(C#CCN2CCC(N3CCCCC3)CC2)cc1` [Example 2, 1′-{3-[4-(2-Ethyl-5,7-dimethyl-imidazo[4,5-b]pyridin-3-ylmethyl)-phenyl]-prop-2-ynyl}-[1,4′]bipiperidine], which IC50 is on record?
**A.** 0.073 µM

**Q.** `CCc1nc2c(C)cc(C)nc2n1Cc1ccc(/C=C/CN2CCN3CCCC3C2C)cc1` (centres unmarked) [Example 73, 2-Ethyl-5,7-dimethyl-3-{4-[(E)-3-(1-methyl-hexahydro-pyrrolo[1,2-a]pyrazin-2-yl)-propenyl]-benzyl}-3H-imidazo[4,5-b]pyridine dihydrochloride] was tested. Which IC50 did it give?
**A.** 0.887 µM

**Q.** With `CCc1nc2c(C)cc(C)nc2n1Cc1ccc(/C=C/CN2CCNCC2)cc1` [Example 42, 2-Ethyl-5,7-dimethyl-3-[4-((E)-3-piperazin-1-yl-propenyl)-benzyl]-3H-imidazo[4,5-b]pyridine] as the molecule, how does the IC50 read?
**A.** 0.162 µM

**Q.** For `CCc1nc2c(C)cc(C)nc2n1Cc1ccc(/C=C/C(=O)N2CCC(N3CCCCC3)CC2)cc1` [Example 97, (E)-1-[1,4′]Bipiperidinyl-1′-yl-3-[4-(2-ethyl-5,7-dimethyl-imidazo[4,5-b]pyridin-3-ylmethyl)-phenyl]-propenone hydrochloride], which IC50 is on record?
**A.** 0.445 µM

**Q.** How did the IC50 turn out when `CCCCc1nc2c(C)cc(C)nc2n1Cc1ccc(/C=C/CN2CCN(C(C)C)CC2)cc1` [Example 85, 2-Butyl-3-{4-[(E)-3-(4-isopropyl-piperazin-1-yl)-propenyl]-benzyl}-5,7-dimethyl-3H-imidazo[4,5-b]pyridine dihydrochloride] was run?
**A.** 0.834 µM

**Q.** With `CCc1nc2c(C)cc(C)nc2n1Cc1ccc(C(=O)NCCCCN2CCCC2)cc1` [Example 99, 4-(2-Ethyl-5,7-dimethyl-imidazo[4,5-b]pyridin-3-ylmethyl)-N-(4-pyrrolidin-1-yl-butyl)-benzamide] as the molecule, how does the IC50 read?
**A.** 0.997 µM

**Q.** `CCc1nc2c(C)cc(C)nc2n1Cc1ccc(/C=C/CN2CCN(C)CC2)cc1` [Example 43, 2-Ethyl-5,7-dimethyl-3-{4-[(E)-3-(4-methyl-piperazin-1-yl)-propenyl]-benzyl}-3H-imidazo[4,5-b]pyridine] was tested. Which IC50 did it give?
**A.** 0.139 µM

**Q.** How did the IC50 turn out when `CCc1nc2c(C)cc(C)nc2n1Cc1ccc(/C=C/CN2C[C@H]3C[C@@H]2CN3CC2CC2)cc1` [Example 76, 3-{4-[(E)-3-((1R,4R)-5-Cyclopropylmethyl-2,5-diaza-bicyclo[2.2.1]hept-2-yl)-propenyl]-benzyl}-2-ethyl-5,7-dimethyl-3H-imidazo[4,5-b]pyridine trihydrochloride] was run?
**A.** 0.111 µM

**Q.** With `CCc1nc2c(C)cc(C)nc2n1Cc1ccc(CCN2CCC(N3CCCCC3)CC2)cc1` [Example 5, 1′-{2-[4-(2-Ethyl-5,7-dimethyl-imidazo[4,5-b]pyridin-3-ylmethyl)-phenyl]-ethyl}-[1,4′]bipiperidinyl] as the molecule, how does the IC50 read?
**A.** 0.227 µM

**Q.** For `CCc1nc2c(C)cc(C)nc2n1Cc1ccc(/C=C/CN2CCN(CCN(CC)CC)CC2)cc1` [Example 60, Diethyl-[2-(4-{(E)-3-[4-(2-ethyl-5,7-dimethyl-imidazo[4,5-b]pyridin-3-ylmethyl)-phenyl]-allyl}-piperazin-1-yl)-ethyl]-amine hydrochloride], which IC50 is on record?
**A.** 0.995 µM

**Q.** With `CCc1nc2c(C)cc(C)nc2n1Cc1ccc(/C=C/CN2CCC(c3c[nH]c4ccccc34)CC2)cc1` [Example 40, 2-Ethyl-3-(4-{(E)-3-[4-(1H-indol-3-yl)-piperidin-1-yl]-propenyl}-benzyl)-5,7-dimethyl-3H-imidazo[4,5-b]pyridine hydrochloride] as the molecule, how does the IC50 read?
**A.** 0.704 µM

**Q.** How did the IC50 turn out when `CCc1nc2c(C)cc(C)nc2n1Cc1ccc(/C=C/CN2CCC(N(CC)CC)CC2)cc1` [Example 31, Diethyl-(1-{(E)-3-[4-(2-ethyl-5,7-dimethyl-imidazo[4,5-b]pyridin-3-ylmethyl)-phenyl]-allyl}-piperidin-4-yl)-amine dihydrochloride] was run?
**A.** 0.144 µM

**Q.** How did the IC50 turn out when `CCc1nc2c(C)cc(C)nc2n1Cc1ccc(/C=C/CN2CCOC(CNC(C)C)C2)cc1` (centres unmarked) [Example 79, (4-{(E)-3-[4-(2-Ethyl-5,7-dimethyl-imidazo[4,5-b]pyridin-3-ylmethyl)-phenyl]-allyl}-morpholin-2-ylmethyl)-isopropyl-amine] was run?
**A.** 0.194 µM

**Q.** With `CCCN1CCN(CCCc2ccc(Cn3c(CC)nc4c(C)cc(C)nc43)cc2)CC1` [Example 7, 2-Ethyl-5,7-dimethyl-3-{4-[3-(4-propyl-piperazin-1-yl)-propyl]-benzyl}-3H-imidazo[4,5-b]pyridine] as the molecule, how does the IC50 read?
**A.** 0.039 µM

**Q.** Which IC50 does the source give for `CCc1nc2c(C)cc(C)nc2n1Cc1ccc(/C=C/CN2CCN(CC)C(C)C2)cc1` (centres unmarked) [Example 69, 2-Ethyl-3-{4-[(E)-3-(4ethyl-3-methyl-piperazin-1-yl)-propenyl]-benzyl}-5,7-dimethyl-3H-imidazo[4,5-b]pyridine dihydrochloride] here?
**A.** 0.201 µM

**Q.** `CCc1nc2c(C)cc(C)nc2n1Cc1ccc(/C=C/CCN2CCN(C(C)C)CC2)cc1` [Example 106, 2-Ethyl-3-{4-[(E)-4-(4-isopropyl-piperazin-1-yl)-but-1-enyl]-benzyl}-5,7-dimethyl-3H-imidazo[4,5-b]pyridine dihydrochloride] was tested. Which IC50 did it give?
**A.** 0.098 µM

**Q.** `CCCC(C)N1CCN(C/C=C/c2ccc(Cn3c(CC)nc4c(C)cc(C)nc43)cc2)CC1` (centres unmarked) [Example 54, 2-Ethyl-5,7-dimethyl-3-(4-{(E)-3-[4-(1-methyl-butyl)-piperazin-1-yl]-propenyl}-benzyl)-3H-imidazo[4,5-b]pyridine dihydrochloride] was tested. Which IC50 did it give?
**A.** 0.166 µM

**Q.** For `CCc1nc2c(C)cc(C)nc2n1Cc1ccc(/C=C/CCN2CCC(N3CCOCC3)CC2)cc1` [Example 108, 2-Ethyl-5,7-dimethyl-3-{4-[(E)-4-(4-morpholin-4-yl-piperidin-1-yl)-but-1-enyl]-benzyl}-3H-imidazo[4,5-b]pyridine dihydrochloride], which IC50 is on record?
**A.** 0.447 µM

**Q.** For `Cc1cc(C)c2nc(C(F)(F)F)n(Cc3ccc(/C=C/CN4CCC(N5CCOCC5)CC4)cc3)c2n1` [Example 89, 5,7-Dimethyl-3-{4-[(E)-3-(4-morpholin-4-yl-piperidin-1-yl)-propenyl]-benzyl}-2-trifluoromethyl-3H-imidazo[4,5-b]pyridine dihydrochloride], which IC50 is on record?
**A.** 0.182 µM

**Q.** For `Cc1cc(C)c2nc(C(F)(F)F)n(Cc3ccc(/C=C/CN4CCN(C(C)C)CC4)cc3)c2n1` [Example 91, 3-{4-[(E)-3-(4-Isopropyl-piperazin-1-yl)-propenyl]-benzyl}-5,7-dimethyl-2-trifluoromethyl-3H-imidazo[4,5-b]pyridine dihydrochloride], which IC50 is on record?
**A.** 0.14 µM

**Q.** For `CCc1nc2c(C)cc(C)nc2n1Cc1ccc(CCCN2C[C@H]3C[C@@H]2CN3CC2CC2)cc1` [Example 28, 3-{4-[3-((1R,4R)-5-Cyclopropylmethyl-2,5-diaza-bicyclo[2.2.1]hept-2-yl)-propyl]-benzyl}-2-ethyl-5,7-dimethyl-3H-imidazo[4,5-b]pyridine], which IC50 is on record?
**A.** 0.436 µM

**Q.** For `CCc1nc2c(C)cc(C)nc2n1Cc1ccc(CCCN2CCN(C(C)CC)CC2)cc1` (centres unmarked) [Example 11, 3-{4-[3-(4-sec-Butyl-piperazin-1-yl)-propyl]-benzyl}-2-ethyl-5,7-dimethyl-3H-imidazo[4,5-b]pyridine], which IC50 is on record?
**A.** 0.479 µM

**Q.** How did the IC50 turn out when `CCc1nc2c(C)cc(C)nc2n1Cc1ccc(/C=C/CN2CCN(C(C)C)C(C)C2)cc1` (centres unmarked) [Example 71, 2-Ethyl-3-{4-[(E)-3-(4-isopropyl-3-methyl-piperazin-1-yl)-propenyl]-benzyl}-5,7-dimethyl-3H-imidazo[4,5-b]pyridine] was run?
**A.** 0.53 µM

**Q.** `CCc1nc2c(C)cc(C)nc2n1Cc1ccc(/C=C/CN2CCC(O)CC2)cc1` [Example 36, 1-{(E)-3-[4-(2-Ethyl-5,7-dimethyl-imidazo[4,5-b]pyridin-3-ylmethyl)-phenyl]-allyl}-piperidin-4-ol] was tested. Which IC50 did it give?
**A.** 0.477 µM

**Q.** Which IC50 does the source give for `CCc1nc2c(C)cc(C)nc2n1Cc1ccc(/C=C/CN2CCN(C3CC3)CC2)cc1` [Example 47, 3-{4-[(E)-3-(4-Cyclopropyl-piperazin-1-yl)-propenyl]-benzyl}-2-ethyl-5,7-dimethyl-3H-imidazo[4,5-b]pyridine dihydrochloride] here?
**A.** 0.41 µM

**Q.** With `CCc1nc2c(C)cc(C)nc2n1Cc1ccc(CCCCN2CCN(C(C)C)CC2)cc1` [Example 111, 2-Ethyl-3-{4-[4-(4-isopropyl-piperazin-1-yl)-butyl]-benzyl}-5,7-dimethyl-3H-imidazo[4,5-b]pyridine dihydrochloride] as the molecule, how does the IC50 read?
**A.** 0.412 µM

**Q.** For `CCc1nc2c(C)cc(C)nc2n1Cc1ccc(/C=C(\F)CN2CCN(C(C)C)CC2)cc1` [Example 94, 2-Ethyl-3-{4-[(Z)-2-fluoro-3-(4-isopropyl-piperazin-1-yl)-propenyl]-benzyl}-5,7-dimethyl-3H-imidazo[4,5-b]pyridine dihydrochloride], which IC50 is on record?
**A.** 0.024 µM

**Q.** With `CCc1nc2c(C)cc(C)nc2n1Cc1ccc(CCCN2CCN(CCC(C)C)CC2)cc1` [Example 16, 2-Ethyl-5,7-dimethyl-3-(4-{3-[4-(3-methyl-butyl)-piperazin-1-yl]-propyl}-benzyl)-3H-imidazo[4,5-b]pyridine] as the molecule, how does the IC50 read?
**A.** 0.283 µM

**Q.** For `CCc1nc2c(C)cc(C)nc2n1Cc1ccc(/C=C/CN2CCC(N3CCOCC3)CC2)cc1` [Example 34, 2-Ethyl-5,7-dimethyl-3-{4-[(E)-3-(4-morpholin-4-yl-piperidin-1-yl)-propenyl]-benzyl}-3H-imidazo[4,5-b]pyridine dihydrochloride], which IC50 is on record?
**A.** 0.182 µM

**Q.** For `CCc1nc2c(C)cc(C)nc2n1Cc1ccc(CCCN2CCN(C)C[C@@H]2C(C)C)cc1` [Example 24, 2-Ethyl-3-{4-[3-((S)-2-isopropyl-4-methyl-piperazin-1-yl)-propyl]-benzyl}-5,7-dimethyl-3H-imidazo[4,5-b]pyridine dihydrochloride], which IC50 is on record?
**A.** 0.961 µM
